Assay results: ChEMBL document CHEMBL3734671, “Design and synthesis of an in vivo-efficacious PIM3 kinase inhibitor as a candidate anti-pancreatic cancer agent” (Bioorg Med Chem Lett, 2015)
Converted amounts (≈) assume the structure as drawn. The source made the active and inactive calls. No cut-off for these calls is given here.

Experiments:
[1] = target: Serine/threonine-protein kinase pim-3 (Homo sapiens, UniProt Q86V86); assay: Inhibition of PIM3 (unknown origin) using FL-Peptide 1 (5-FAM-AKRRRLSSLRA-COOH) substrate incubated for 2 hrs by electrophoretic mobility shift assay
[2] = Growth inhibition of human PANC1 cells after 72 hrs by CCK-8 assay; format: functional, cell-based; details: PANC-1, 72 h
CYP3A4 = CYP3A4 (Homo sapiens, UniProt P08684); assay: Inhibition of CYP3A4 (unknown origin) at 10 uM; format: ADME
[3] = Aqueous solubility in PBS buffer solution at pH 7.4; format: physicochemical
CYP1A2 = target: T1, CYP1A2 (Homo sapiens, UniProt P05177); assay: Inhibition of CYP1A2 (unknown origin) at 10 uM; format: ADME
T1 sequence (P05177 whole entry): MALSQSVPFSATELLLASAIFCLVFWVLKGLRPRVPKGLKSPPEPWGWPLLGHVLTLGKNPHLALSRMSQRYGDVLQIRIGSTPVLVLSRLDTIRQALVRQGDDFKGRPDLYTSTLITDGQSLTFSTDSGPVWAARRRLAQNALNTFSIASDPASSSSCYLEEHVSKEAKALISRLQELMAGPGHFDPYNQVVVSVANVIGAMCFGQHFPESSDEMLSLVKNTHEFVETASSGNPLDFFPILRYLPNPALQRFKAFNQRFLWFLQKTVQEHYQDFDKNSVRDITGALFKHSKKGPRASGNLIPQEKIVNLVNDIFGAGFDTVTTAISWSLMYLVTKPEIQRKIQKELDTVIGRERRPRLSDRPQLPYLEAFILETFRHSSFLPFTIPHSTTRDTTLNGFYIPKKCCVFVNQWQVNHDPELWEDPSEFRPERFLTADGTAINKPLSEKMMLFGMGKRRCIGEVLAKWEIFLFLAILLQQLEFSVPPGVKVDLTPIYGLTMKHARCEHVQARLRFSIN

CYP2C19 = CYP2C19 (Homo sapiens, UniProt P33261); assay: Inhibition of CYP2C19 (unknown origin) at 10 uM; format: ADME
hERG (KCNH2) = hERG (KCNH2) (Homo sapiens, UniProt Q12809); assay: Inhibition of human ERG at 10 uM by patch-clamp method
CYP2C9 = CYP2C9 (Homo sapiens, UniProt P11712); assay: Inhibition of CYP2C9 (unknown origin) at 10 uM; format: ADME
CYP2D6 = CYP2D6 (Homo sapiens, UniProt P10635); assay: Inhibition of CYP2D6 (unknown origin) at 10 uM; format: ADME
[4] = Growth inhibition of human L3.6PL cells after 72 hrs by CCK-8 assay; format: functional
[5] = Growth inhibition of human PCI66 cells after 72 hrs by CCK-8 assay; format: functional, cell-based; details: PCI66, 72 h
[6] = target: Receptor-type tyrosine-protein kinase FLT3 (Homo sapiens) (UniProt P36888); assay: Inhibition of FLT3 (unknown origin) at 200 nM by electrophoretic mobility shift assay
[7] = Growth inhibition of human MIAPaCa2 cells after 72 hrs by CCK-8 assay; format: functional, cell-based; details: MIA PaCa-2, 72 h
[8] = target: Serine/threonine-protein kinase pim-2 (Homo sapiens, UniProt Q9P1W9); assay: Inhibition of PIM2 (unknown origin) by electrophoretic mobility shift assay
[9] = Growth inhibition of human PCI35 cells after 72 hrs by CCK-8 assay; format: functional, cell-based; details: PCI35, 72 h
[10] = Growth inhibition of human MIAPaCa2 cells at 10 uM after 72 hrs by CCK-8 assay; format: functional; details: MIA PaCa-2, 72 h, read-out: GI
[11] = Growth inhibition of human PCI66 cells at 10 uM after 72 hrs by CCK-8 assay; format: functional; details: PCI66, 72 h, read-out: GI

Sequence of CYP2C9 (P11712 whole entry): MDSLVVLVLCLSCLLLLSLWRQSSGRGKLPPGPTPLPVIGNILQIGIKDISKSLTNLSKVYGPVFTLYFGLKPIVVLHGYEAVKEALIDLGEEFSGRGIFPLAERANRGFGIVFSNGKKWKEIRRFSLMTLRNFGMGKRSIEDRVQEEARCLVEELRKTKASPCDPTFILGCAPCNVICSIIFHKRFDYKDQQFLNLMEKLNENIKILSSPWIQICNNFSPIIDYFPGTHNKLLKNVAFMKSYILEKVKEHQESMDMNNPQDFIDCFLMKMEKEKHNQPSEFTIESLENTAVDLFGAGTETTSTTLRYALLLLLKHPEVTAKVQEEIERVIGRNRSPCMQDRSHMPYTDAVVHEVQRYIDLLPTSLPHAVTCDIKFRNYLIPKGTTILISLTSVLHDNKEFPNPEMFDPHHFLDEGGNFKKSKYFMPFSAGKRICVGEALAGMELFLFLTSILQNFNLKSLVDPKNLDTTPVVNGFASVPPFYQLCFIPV
Sequence of CYP3A4 (P08684 whole entry): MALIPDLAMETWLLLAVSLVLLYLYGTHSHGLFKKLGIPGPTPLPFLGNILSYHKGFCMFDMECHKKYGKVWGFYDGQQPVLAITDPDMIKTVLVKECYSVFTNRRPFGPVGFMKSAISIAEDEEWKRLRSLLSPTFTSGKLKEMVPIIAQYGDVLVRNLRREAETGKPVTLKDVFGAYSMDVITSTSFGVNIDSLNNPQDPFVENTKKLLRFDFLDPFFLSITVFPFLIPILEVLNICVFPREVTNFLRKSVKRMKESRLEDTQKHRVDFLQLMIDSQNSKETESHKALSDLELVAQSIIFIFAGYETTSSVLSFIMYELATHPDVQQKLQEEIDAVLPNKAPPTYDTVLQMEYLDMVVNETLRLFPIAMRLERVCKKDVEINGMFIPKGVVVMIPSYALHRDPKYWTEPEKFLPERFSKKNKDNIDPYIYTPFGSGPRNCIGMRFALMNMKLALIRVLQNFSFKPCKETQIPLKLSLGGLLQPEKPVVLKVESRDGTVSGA
Sequence of Receptor-type tyrosine-protein kinase FLT3 (Homo sapiens) (P36888 whole entry): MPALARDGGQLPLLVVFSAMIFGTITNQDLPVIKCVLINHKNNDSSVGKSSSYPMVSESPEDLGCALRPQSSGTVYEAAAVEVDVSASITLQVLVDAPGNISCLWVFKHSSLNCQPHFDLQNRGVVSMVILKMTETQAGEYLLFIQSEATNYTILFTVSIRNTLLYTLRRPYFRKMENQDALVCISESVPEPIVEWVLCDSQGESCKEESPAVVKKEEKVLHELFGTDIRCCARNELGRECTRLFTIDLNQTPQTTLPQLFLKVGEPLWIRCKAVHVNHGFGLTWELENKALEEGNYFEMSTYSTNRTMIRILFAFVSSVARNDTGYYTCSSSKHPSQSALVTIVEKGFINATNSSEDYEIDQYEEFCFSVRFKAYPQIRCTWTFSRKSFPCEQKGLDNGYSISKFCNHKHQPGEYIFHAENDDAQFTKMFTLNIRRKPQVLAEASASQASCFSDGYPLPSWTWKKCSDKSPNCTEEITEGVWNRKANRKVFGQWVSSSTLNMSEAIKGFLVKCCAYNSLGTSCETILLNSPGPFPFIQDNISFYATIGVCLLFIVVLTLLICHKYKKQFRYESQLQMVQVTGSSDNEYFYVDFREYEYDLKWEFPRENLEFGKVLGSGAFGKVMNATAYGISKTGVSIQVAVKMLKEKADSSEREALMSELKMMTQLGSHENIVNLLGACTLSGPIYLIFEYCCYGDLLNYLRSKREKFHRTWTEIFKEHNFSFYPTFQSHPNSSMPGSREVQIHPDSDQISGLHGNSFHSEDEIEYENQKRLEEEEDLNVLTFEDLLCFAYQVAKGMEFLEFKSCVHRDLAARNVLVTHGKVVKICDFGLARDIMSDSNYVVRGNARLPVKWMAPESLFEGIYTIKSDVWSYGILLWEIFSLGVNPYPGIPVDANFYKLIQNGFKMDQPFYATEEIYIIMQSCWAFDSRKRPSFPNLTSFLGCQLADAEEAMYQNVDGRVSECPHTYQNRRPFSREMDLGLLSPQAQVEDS
Sequence of CYP2C19 (P33261 whole entry): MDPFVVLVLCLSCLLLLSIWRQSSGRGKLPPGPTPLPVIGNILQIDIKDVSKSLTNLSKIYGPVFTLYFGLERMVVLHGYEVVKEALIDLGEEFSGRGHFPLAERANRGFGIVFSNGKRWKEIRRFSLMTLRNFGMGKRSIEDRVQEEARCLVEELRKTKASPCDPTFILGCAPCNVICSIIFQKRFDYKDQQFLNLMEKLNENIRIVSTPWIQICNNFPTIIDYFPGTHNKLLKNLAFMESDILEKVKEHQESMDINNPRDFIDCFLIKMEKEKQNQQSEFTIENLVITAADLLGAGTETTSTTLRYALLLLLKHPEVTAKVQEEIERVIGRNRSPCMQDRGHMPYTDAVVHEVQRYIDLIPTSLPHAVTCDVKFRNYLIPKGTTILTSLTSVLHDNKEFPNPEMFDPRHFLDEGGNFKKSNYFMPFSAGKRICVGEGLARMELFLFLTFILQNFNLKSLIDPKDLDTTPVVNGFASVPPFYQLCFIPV
Sequence of Serine/threonine-protein kinase pim-2 (Q9P1W9 whole entry): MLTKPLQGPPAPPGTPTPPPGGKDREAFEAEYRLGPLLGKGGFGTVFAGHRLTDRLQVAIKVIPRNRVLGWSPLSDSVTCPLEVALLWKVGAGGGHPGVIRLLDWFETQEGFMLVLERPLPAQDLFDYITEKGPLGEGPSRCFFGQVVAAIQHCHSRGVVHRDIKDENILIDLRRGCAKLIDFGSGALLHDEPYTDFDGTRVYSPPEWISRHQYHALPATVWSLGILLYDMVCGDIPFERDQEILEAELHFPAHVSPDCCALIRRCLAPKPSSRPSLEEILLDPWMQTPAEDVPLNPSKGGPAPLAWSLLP
Sequence of CYP2D6 (P10635 whole entry): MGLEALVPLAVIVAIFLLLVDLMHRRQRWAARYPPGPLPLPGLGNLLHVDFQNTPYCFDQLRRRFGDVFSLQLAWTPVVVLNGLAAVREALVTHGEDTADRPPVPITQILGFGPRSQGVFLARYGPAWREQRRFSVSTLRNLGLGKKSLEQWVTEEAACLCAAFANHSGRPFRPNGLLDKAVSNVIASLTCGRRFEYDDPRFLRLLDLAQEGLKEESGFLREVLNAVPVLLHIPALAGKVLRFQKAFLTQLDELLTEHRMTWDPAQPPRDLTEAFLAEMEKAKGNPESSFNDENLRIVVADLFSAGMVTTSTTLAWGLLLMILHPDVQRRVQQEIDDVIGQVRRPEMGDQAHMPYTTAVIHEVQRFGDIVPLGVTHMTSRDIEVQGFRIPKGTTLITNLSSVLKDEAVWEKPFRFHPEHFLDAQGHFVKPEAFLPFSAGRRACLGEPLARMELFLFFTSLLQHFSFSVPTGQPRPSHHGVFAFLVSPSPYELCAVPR
Sequence of hERG (KCNH2) (Q12809 whole entry): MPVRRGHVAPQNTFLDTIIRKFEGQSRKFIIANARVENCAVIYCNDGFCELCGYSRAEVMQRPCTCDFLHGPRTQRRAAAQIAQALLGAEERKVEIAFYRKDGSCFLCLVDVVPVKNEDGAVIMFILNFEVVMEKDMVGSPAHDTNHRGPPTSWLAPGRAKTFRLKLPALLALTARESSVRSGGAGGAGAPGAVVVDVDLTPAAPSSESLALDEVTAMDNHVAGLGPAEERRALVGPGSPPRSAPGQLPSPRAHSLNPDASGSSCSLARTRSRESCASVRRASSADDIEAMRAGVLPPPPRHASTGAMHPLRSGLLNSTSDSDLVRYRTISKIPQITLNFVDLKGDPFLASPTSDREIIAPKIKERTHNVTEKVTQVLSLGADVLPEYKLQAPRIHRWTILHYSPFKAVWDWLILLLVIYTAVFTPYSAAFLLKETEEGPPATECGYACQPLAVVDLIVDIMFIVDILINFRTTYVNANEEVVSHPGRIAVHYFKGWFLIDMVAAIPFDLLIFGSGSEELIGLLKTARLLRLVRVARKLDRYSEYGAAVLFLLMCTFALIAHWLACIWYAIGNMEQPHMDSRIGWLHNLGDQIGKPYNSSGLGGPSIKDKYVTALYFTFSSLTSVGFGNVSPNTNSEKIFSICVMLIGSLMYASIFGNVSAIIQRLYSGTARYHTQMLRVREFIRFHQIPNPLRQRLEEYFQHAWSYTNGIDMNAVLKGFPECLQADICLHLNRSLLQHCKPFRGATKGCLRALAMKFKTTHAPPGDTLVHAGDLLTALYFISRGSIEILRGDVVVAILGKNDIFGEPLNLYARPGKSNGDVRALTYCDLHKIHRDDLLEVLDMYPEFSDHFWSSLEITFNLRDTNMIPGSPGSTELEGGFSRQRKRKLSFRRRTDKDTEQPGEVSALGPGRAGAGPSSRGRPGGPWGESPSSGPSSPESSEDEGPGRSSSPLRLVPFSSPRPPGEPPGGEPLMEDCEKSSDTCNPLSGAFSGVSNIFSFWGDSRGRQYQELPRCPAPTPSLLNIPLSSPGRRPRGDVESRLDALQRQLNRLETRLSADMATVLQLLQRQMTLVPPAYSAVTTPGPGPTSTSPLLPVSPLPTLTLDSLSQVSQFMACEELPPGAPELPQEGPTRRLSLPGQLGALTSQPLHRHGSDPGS

Row | IC50 [1] | Compound | IC50 [2] | also measured
1 | 0.0011 µM | COc1ccc2c(c1CN1CCNC[C@@H]1C)O/C(=C\c1n[nH]c3ncccc13)C2=O | > 10 µM | –
2 | 0.003 µM | COCCOc1ccc2c(c1C(C)N1CCNCC1)O/C(=C\c1n[nH]c3ncccc13)C2=O (centres undefined) | 3.3 µM | inhibition at 10 µM (CYP3A4): < 1%; solubility [3]: 196 µM (≈ 88.1 µg/mL); inhibition at 10 µM (CYP1A2): < 1%; inhibition at 10 µM (CYP2C19): < 1%; inhibition at 10 µM (hERG (KCNH2)): 16%; inhibition at 10 µM (CYP2C9): < 1%; inhibition at 10 µM (CYP2D6): 83%
3 | 0.13 µM | COc1ccc2c(c1CN1CCNCC1)O/C(=C\c1c[nH]c3ccncc13)C2=O | > 10 µM | –
4 | 0.018 µM | COc1ccc2c(c1CN1CCNC[C@H]1C)O/C(=C\c1n[nH]c3ncccc13)C2=O | > 10 µM | –
5 | 0.025 µM | COc1ccc2c(c1CN1CCNCC1)O/C(=C\c1n[nH]c3ccccc13)C2=O | > 10 µM | IC50 [4]: > 10 µM; solubility [3]: 187 µM (≈ 73 µg/mL); IC50 [5]: > 10 µM; inhibition [6]: Active; IC50 [7]: > 10 µM; IC50 [8]: > 1 µM; inhibition at 10 µM (CYP2C9): < 1%; IC50 [9]: > 10 µM
6 | 0.004 µM | COc1ccc2c(c1CN1CCN[C@H](C)C1)O/C(=C\c1n[nH]c3ncccc13)C2=O | 8.4 µM | –
7 | 0.0013 µM | COc1ccc2c(c1CN1CCNCC1)O/C(=C\c1c[nH]c3ncccc13)C2=O | 5.2 µM | –
8 | > 2 µM | COc1ccc2c(c1CN1CCNCC1)O/C(=C\c1c[nH]c3cccnc13)C2=O | > 10 µM | –
9 | – | C#Cc1cccc(Nc2ncnc3cc(OCCOC)c(OCCOC)cc23)c1 [ERLOTINIB] | 3.1 µM | IC50 [4]: 4 µM; IC50 [5]: > 10 µM; IC50 [7]: > 10 µM; inhibition of growth at 10 µM [10]: < 1%; IC50 [9]: 7.7 µM; inhibition of growth at 10 µM [11]: 12%
10 | 0.044 µM | COc1ccc2c(c1CN1CCNCC1)O/C(=C\c1c[nH]c3cnccc13)C2=O | > 10 µM | –
11 | 0.0008 µM | COc1ccc2c(c1CN1CCN[C@@H](C)C1)O/C(=C\c1n[nH]c3ncccc13)C2=O | 6.9 µM | –
12 | 0.0064 µM | CC(c1c(OCCO)ccc2c1O/C(=C\c1n[nH]c3ncccc13)C2=O)N1CCNCC1 (centres undefined) | > 10 µM | –
